Data on nine compounds can be found in US20230105212A1, “BIPHENYL DERIVATIVE INHIBITOR, PREPARATION METHOD THEREFOR AND USE THEREOF” (SHANGHAI HANSOH BIOMEDICAL CO., LTD., priority 2020, published 2023).

Data set [1] addresses T1, PD-L1 protein on the surface of MC38-hPDL1 tumor cells (Homo sapiens, UniProt Q9NZQ7).
T1 construct: expressed in transfected cells; host or cells: MC38-hPDL1 (mouse colon cancer cells)
In words: Induction of endocytosis of PD-L1 on the surface of tumor cells (flow cytometry). Format: cell-based. As to conditions: for Emax: MC38-hPDL1 cells, read-out: MC38 maximum endocytosis rate. The gist of the method:
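MC38-hPDL1 mouse colon cancer cells overexpressing human PD-L1 were exposed to compound dilutions for 16 h at 37 °C. Surface PD-L1 was then stained with PE anti-human CD274 for 30 min at room temperature and measured by flow cytometry. Endocytosis rate versus concentration was fitted by nonlinear regression to give IC50.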
For orientation: A flow cytometer gives signals particle by particle.

The nature of data set [2]: Pharmacokinetics test in Balb/C mice. Format: in vivo. The conditions noted are these: male, mouse, po, p.o. 5 mg/kg, plasma; for AUC(0-t): read-out: Curve area AUC0−t; for Cmax: read-out: Drug concentration in plasma Cmax; for Tmax: read-out: Peak time tmax; for MRT inf: read-out: Average residence time MRT0−∞; for half-life: read-out: Half life t1/2 (converted). The protocol: Test Embodiment 6. Pharmacokinetics Test in Balb/C Mice
Taking Balb/C mice as the test animals, the pharmacokinetic behavior in the plasma of mice of the following compound embodiments was studied when orally administered at a dose of 5 mg/kg.
Balb/C Mouse 6/embodiment, male, Shanghai Jisijie Laboratory Animal Co., Ltd., animal production license number (SCXK (Shanghai) 2013-0006 No. 311620400001794).
0.5% HPMC (1% Tween 80), dissolved by sonication, to prepare a clear solution or a homogeneous suspension.
Balb/C mice, male; p.o. after overnight fasting, respectively, at a dose of 5 mg/kg, administered in a volume of 10 mL/kg.
Before and after administration of mice, at 0, 0.5, 1, 2, 4, 6, 8 and 24 hours, 0.1 mL of blood was collected from the orbit, placed in an EDTA-K2 test tube, and centrifuged at 6000 rpm at 4° C. for 6 min to separate the plasma, stored at −80° C.
1) 40 μL of plasma samples were added to 160 μL of acetonitrile for precipitation, mixed and centrifuged at 3500×g for 5 to 20 minutes.
2) 100 μL of the supernatant solution after treatment was taken for LC/MS/MS to analyze the concentration of the compounds to be tested.
2.6 Liquid Phase Analysis • Liquid phase condition: Shimadzu LC-20AD pump • MS conditions: AB Sciex API 4000 Mass Spectrometer • Chromatographic column: phenomenex Gemiu 5 μm C18 50×4.6 mm • Mobile phase: A solution was aqueous 0.1% formic acid solution, B solution was acetonitrile • Flow rate: 0.8 mL/min • Elution time: 0 to 4.0 minutes, the eluent was as follows:
The main parameters of pharmacokinetics were calculated with WinNonlin 8.2, and the results of the mice pharmacokinetic experiments were shown in the following table: […]

Data set [3] is described as follows: Plasma protein binding rate (equilibrium dialysis). Format: in vitro ADME. The conditions noted are these: mouse plasma, equilibrium dialysis 37° C. 5 hours. Here is the method: Test Embodiment 8. Plasma Protein Binding Rate Experiment
The purpose of this experimental method was to detect the plasma protein binding of the embodiment compounds in plasma.
The frozen plasma was thawed at room temperature or in a water bath at 37° C., then centrifuged at 3500 rpm for 5 min, and the supernatant was taken.
Preparation of compound working solution: Stock solutions were diluted with DMSO to a final concentration of 1 mM.
2.5 μL of compound working solution was added to 497.5 μL of blank plasma to a final concentration of 5 μM, shaked and mixed well.
1) The equilibrium dialysis device was prepared, and the detection membrane device was put into the equilibrium dialysis 96-well plate;
2) 200 μL of the prepared plasma solution was added to the membrane, n=2;
3) another 5 μL of plasma solution was taken, diluted 10 times with 45 μL of blank plasma of the same species, and 200 μL of acetonitrile termination solution containing internal standard was added, and stored in a −20° C. refrigerator;
4) 350 μL of dialysate (100 mM phosphate buffer) was added outside the membrane;
5) the dialysis plate was sealed and incubated in a 37° C. water bath for 5 hours;
6) after dialysis, 5 μL was taken out from the sample hole in the membrane, and diluted 10 times with 45 μL of blank plasma of the same species; 50 μL of dialysate was taken out from the sample hole outside the membrane, and 200 μL of acetonitrile termination solution containing internal standard was added;
7) the supernatant was taken after sample centrifugation;
Background: In equilibrium dialysis free small molecules cross a membrane that holds back macromolecules.

Data set [4] relates to NFAT-luc2/PD1 Jurkat cells. Put plainly: In vitro cytotoxicity on NFAT-luc2/PD1 Jurkat cells (CellTiter-Glo). The conditions noted are these: 72 hours; for IC50: Homo sapiens, Jurkat. The class given is cell-based. The gist of the method:
(§1)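 Cells plated overnight at 37° C, 5% CO2, then exposed to serial compound dilutions for 72 hours. Viability measured by CellTiter-Glo luminescence; inhibition rate versus vehicle fitted by nonlinear regression to give IC50.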
In general terms: ATP-based viability assays read luminescence as a measure of living cells.

In data set [5] the test system is MC38-hPDL1 cells. Put plainly: In vitro cytotoxicity on MC38-hPDL1 cells (CellTiter-Glo). Format: cell-based, mouse. As to conditions: for MC38-hPDL1 inhibition rate (%): 72 hours; for IC50: Mus musculus, MC38-hPD-L1, 72 hours. The method, boiled down: as §1
Where [6] appears, read: inducing endocytosis of PD-L1, MC38-hPDL1 cells, 16 hours incubation, read-out: MC38 IC50.

Read-outs that look alike come from different tables or passages of the source.

T1 sequence (Q9NZQ7 19-290): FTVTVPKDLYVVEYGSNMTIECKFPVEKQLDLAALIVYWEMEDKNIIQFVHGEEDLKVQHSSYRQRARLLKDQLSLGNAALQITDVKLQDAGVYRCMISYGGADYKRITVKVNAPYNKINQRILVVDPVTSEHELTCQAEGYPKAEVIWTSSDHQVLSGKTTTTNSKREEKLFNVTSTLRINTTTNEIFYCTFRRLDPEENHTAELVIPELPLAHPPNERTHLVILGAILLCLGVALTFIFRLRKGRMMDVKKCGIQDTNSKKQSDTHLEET

What is called IC50 is the concentration that inhibits the measured activity by half. The Tmax is the time from dosing to the highest level. Usually fraction unbound stands for free concentration divided by total concentration. For the compound `COc1nc(-c2cccc(-c3cccc(NC(=O)c4nc5c(n4C)CCN(C)C5)c3Cl)c2Cl)ccc1CN[C@H]1CCOC[C@@H]1O` (relative stereo) [Embodiment 175, N-(2,2′-Dichloro-3′-(5-((((3,4-trans)-3-hydroxytetrahydro-2H-pyran-4-yl)amino)methyl)-6-methoxypyridin-2-yl)-[1,1′-biphenyl]-3-yl)-1,5-dimethyl-4,5,6,7-tetrahydro-1H-imidazo[4,5-c]pyridine-2-carboxamide], in data set [1] (16 hours incubation), the Emax worked out at 98%. In data set [1] (setting [6]), the IC50 turned out to be 0.4 nM. In data set [2], the AUC(0-t) was found to be 1630 ng·h/mL, the Cmax was 132 ng/mL and the Tmax was 6 h. In addition, the fraction unbound at 5 h, 5 μM in data set [3] turned out to be 0.0052.

For the compound `COc1nc(-c2cccc(-c3cccc(NC(=O)c4nc5c(n4C)CCN(C)C5)c3Cl)c2Cl)ccc1CNC1COC1` [Embodiment 114, N-(2,2′-Dichloro-3′-(6-methoxy-5-((oxetan-3-ylamino)methyl)pyridin-2-yl)-[1,1′-biphenyl]-3-yl)-1,5-dimethyl-4,5,6,7-tetrahydro-1H-imidazo[4,5-c]pyridine-2-carboxamide], the Emax in data set [1] (16 hours incubation) stood at 95%. For the same compound, the IC50 in data set [1] (setting [6]) came out at 1.2 nM. For the same compound, in data set [4], the “Jurkat-PD1 inhibition rate (%)” value came out at 69.0%^ and the IC50 is 7630 nM. In data set [5], the “MC38-hPDL1 inhibition rate (%)” value is 14.0%^ and the IC50 was greater than 10000 nM. Besides, in data set [2], the MRT inf was 11.3 h, the AUC(0-t) turned out to be 596 ng·h/mL, the Cmax stood at 48 ng/mL and the half-life was 9 h. Besides, the Tmax in data set [2] was determined as 2 h. In data set [3], this compound returned a fraction unbound at 5 h, 5 μM of 0.0033.

As for `COc1nc(-c2cccc(-c3cccc(NC(=O)c4nc5c(n4C)CCN(C)C5)c3Cl)c2Cl)ccc1CN1CC2(C1)CN(C(C)=O)C2` [Embodiment 123, N-(3′-(5-((6-Acetyl-2,6-diazaspiro[3.3]heptan-2-yl)methyl)-6-methoxypyridin-2-yl)-2,2′-dichloro-[1,1′-biphenyl]-3-yl)-1,5-dimethyl-4,5,6,7-tetrahydro-1H-imidazo[4,5-c]pyridine-2-carboxamide], the Emax in data set [1] (16 hours incubation) is 97%. In addition, in data set [1] (setting [6]), the IC50 turned out to be 0.4 nM. In data set [2], the MRT inf is 12.8 h, the AUC(0-t) amounted to 778 ng·h/mL, the Cmax stood at 59 ng/mL and the half-life is 6.7 h. Besides, the Tmax in data set [2] was found to be 4 h. This compound displayed a fraction unbound at 5 h, 5 μM in data set [3] of 0.0095.

Turning to `COc1nc(-c2cccc(-c3cccc(NC(=O)c4nc5c(n4C)CCN(C)C5)c3Cl)c2Cl)ccc1CN1CC2(COC2)C1` [Embodiment 124, N-(3′-(5-((2-Oxa-6-azaspiro[3.3]heptan-6-yl)methyl)-6-methoxypyridin-2-yl)-2,2′-dichloro-[1,1′-biphenyl]-3-yl)-1,5-dimethyl-4,5,6,7-tetrahydro-1H-imidazo[4,5-c]pyridine-2-carboxamide], the Emax in data set [1] (16 hours incubation) is 96%. The IC50 in data set [1] (setting [6]) turned out to be 0.4 nM. For the same compound, in data set [2], the MRT inf was found to be 25 h, the AUC(0-t) came out at 523 ng·h/mL, the Cmax was found to be 36 ng/mL and the half-life was 20 h. Further, in data set [2], the Tmax stood at 4 h. In addition, the fraction unbound at 5 h, 5 μM in data set [3] came out at 0.0057.

With `COc1nc(-c2cccc(-c3cccc(NC(=O)c4nc5c(n4C)CCN(C)C5)c3Cl)c2Cl)cnc1CN1CC2(C1)CN(C(C)=O)C2` [Embodiment 152, N-(3′-(5-((6-Acetyl-2,6-diazaspiro[3.3]heptan-2-yl)methyl)-6-methoxypyrazin-2-yl)-2,2′-dichloro-[1,1′-biphenyl]-3-yl)-1,5-dimethyl-4,5,6,7-tetrahydro-1H-imidazo[4,5-c]pyridine-2-carboxamide], the Emax in data set [1] (16 hours incubation) stood at 97%. Also, the IC50 in data set [1] (setting [6]) is 0.6 nM. Moreover, in data set [4], the “Jurkat-PD1 inhibition rate (%)” value is reported as 97% and the IC50 is 4460 nM. In data set [5], the “MC38-hPDL1 inhibition rate (%)” value came to 15% and the IC50 is greater than 10000 nM. Also, in data set [2], the MRT inf was 10 h, the AUC(0-t) worked out at 1140 ng·h/mL, the Cmax stood at 93 ng/mL and the Tmax is 8 h. For the same compound, in data set [3], the fraction unbound at 5 h, 5 μM is 0.0181.

`COc1nc(-c2cccc(-c3cccc(NC(=O)c4nc5c(n4C)CCN(C)C5)c3Cl)c2Cl)ccc1CN1CC(NC(C)=O)C1` [Embodiment 180, N-(3′-(5-((3-Acetylaminoazetidin-1-yl)methyl)-6-methoxypyridin-2-yl)-2,2′-dichloro-[1,1′-biphenyl]-3-yl)-1,5-dimethyl-4,5,6,7-tetrahydro-1H-imidazo[4,5-c]pyridine-2-carboxamide]: in data set [1] (16 hours incubation), the Emax came out at 96%. Besides, in data set [1] (setting [6]), the IC50 was determined as 0.6 nM. Besides, in data set [2], the MRT inf is 12.9 h, the AUC(0-t) was 887 ng·h/mL, the Cmax was determined as 116 ng/mL and the half-life was 9.5 h. Besides, the Tmax in data set [2] turned out to be 2 h. In data set [3], the fraction unbound at 5 h, 5 μM came out at 0.0044.

As for `COc1nc(-c2cccc(-c3cccc(NC(=O)c4nc5c(n4C)CCN(C)C5)c3Cl)c2Cl)ccc1CN1CC2(C1)CN(C(=O)C(C)C)C2` [Embodiment 186, N-(2,2′-Dichloro-3′-(5-((6-isobutyryl-2,6-diazaspiro[3.3]heptan-2-yl)methyl)-6-methoxypyridin-2-yl)-[1,1′-biphenyl]-3-yl)-1,5-dimethyl-4,5,6,7-tetrahydro-1H-imidazo[4,5-c]pyridine-2-carboxamide], in data set [1] (16 hours incubation), the Emax is 96%. Moreover, the IC50 in data set [1] (setting [6]) was determined as 0.7 nM. For the same compound, in data set [2], the MRT inf turned out to be 22.5 h, the AUC(0-t) came out at 537 ng·h/mL, the Cmax is 31 ng/mL and the half-life is 15.2 h. Further, in data set [2], the Tmax came to 2 h. In data set [3], this compound returned a fraction unbound at 5 h, 5 μM of 0.003.

Turning to `CCC(=O)N1CC2(CN(Cc3ccc(-c4cccc(-c5cccc(NC(=O)c6nc7c(n6C)CCN(C)C7)c5Cl)c4Cl)nc3OC)C2)C1` [Embodiment 188, N-(2,2′-Dichloro-3′-(6-methoxy-5-((6-propionyl-2,6-diazaspiro[3.3]heptan-2-yl)methyl)pyridin-2-yl)-[1,1′-biphenyl]-3-yl)-1,5-dimethyl-4,5,6,7-tetrahydro-1H-imidazo[4,5-c]pyridine-2-carboxamide], the IC50 in data set [1] came out at 0.4 nM. In addition, the Emax in data set [1] (16 hours incubation) was 97%. The compound further displayed a fraction unbound at 5 h, 5 μM in data set [3] of 0.0052.

Regarding `COc1nc(-c2cccc(-c3cccc(NC(=O)c4nc5c(n4C)CCN(C)C5)c3Cl)c2Cl)ncc1CN1CC(CNC(C)=O)C1` [Embodiment 225, N-(3′-(5-((3-(Acetylaminomethyl)azetidin-1-yl)methyl)-4-methoxypyrimidin-2-yl)-2,2′-dichloro-[1,1′-biphenyl]-3-yl)-1,5-dimethyl-4,5,6,7-tetrahydro-1H-imidazo[4,5-c]pyridine-2-carboxamide], the Emax in data set [1] (16 hours incubation) is 93%. Also, in data set [4], the “Jurkat-PD1 inhibition rate (%)” value is 51% and the IC50 turned out to be 9070 nM. Further, in data set [5], the “MC38-hPDL1 inhibition rate (%)” value came out at 1% and the IC50 is greater than 10000 nM. For the same compound, in data set [2], the MRT inf is 10.6 h, the AUC(0-t) was 1920 ng·h/mL, the half-life was 9.2 h and the Tmax was 2 h.
